In patent US8840938B2, “Bioavailability enhancing composition” (priority 2011, dated 2014):
Where two headings read alike, the source gives them in different places.

Experiments:
TRPV1 = TRPV1 (Homo sapiens, UniProt Q8NER1); test: Scoville Heat Unit (SHU) as a measure of TRPV1 activation; conditions: for Adjusted SHU: SHU of pure agonist times percent agonist in the herb, totals per herb; for SHU of pure Agonist: pure TRPV1 agonist, per mg
Procedure: SHU as used herein as a measure of TRPV1 activation. SHU mg is calculated as the SHU of a TRPV1 agonist multiplied by the milligrams of the TRPV1 agonist in a compound.

[1] = cited from earlier work; for Peak theophylline plasma levels / levels of theophylline (absorption) / mean residence times of theophylline: rabbits, oral theophylline 20 mg/kg
[2] = concomitant ground capsicum fruit suspension

Chain of TRPV1 (Q8NER1 whole entry, species assumed): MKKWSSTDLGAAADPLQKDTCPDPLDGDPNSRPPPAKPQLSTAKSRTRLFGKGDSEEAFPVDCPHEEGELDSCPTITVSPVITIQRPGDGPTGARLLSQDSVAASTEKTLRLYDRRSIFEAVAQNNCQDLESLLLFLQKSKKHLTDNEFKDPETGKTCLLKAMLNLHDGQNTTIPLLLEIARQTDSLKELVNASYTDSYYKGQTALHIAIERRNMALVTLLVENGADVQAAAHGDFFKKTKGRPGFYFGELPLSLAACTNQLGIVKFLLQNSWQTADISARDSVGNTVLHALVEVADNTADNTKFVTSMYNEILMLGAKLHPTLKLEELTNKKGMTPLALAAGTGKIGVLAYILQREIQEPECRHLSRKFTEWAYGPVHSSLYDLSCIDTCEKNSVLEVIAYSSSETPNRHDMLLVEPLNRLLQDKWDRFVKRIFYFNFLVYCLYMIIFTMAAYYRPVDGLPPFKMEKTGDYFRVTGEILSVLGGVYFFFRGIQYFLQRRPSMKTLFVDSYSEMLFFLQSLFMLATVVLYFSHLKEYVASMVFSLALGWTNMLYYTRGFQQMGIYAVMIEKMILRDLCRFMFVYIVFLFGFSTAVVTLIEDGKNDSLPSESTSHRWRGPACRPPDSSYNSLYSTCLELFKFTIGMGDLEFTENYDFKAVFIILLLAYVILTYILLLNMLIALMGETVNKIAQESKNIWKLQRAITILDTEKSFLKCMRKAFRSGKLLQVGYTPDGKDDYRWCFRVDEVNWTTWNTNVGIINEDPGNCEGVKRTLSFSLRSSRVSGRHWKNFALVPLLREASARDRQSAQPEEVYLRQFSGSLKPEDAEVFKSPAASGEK

Compound	Adjusted SHU (TRPV1)	SHU of pure Agonist (TRPV1)	other results
CCCCC[C@H](O)CC(=O)CCc1ccc(O)c(OC)c1 [Formulation 6-gingerol, 6-gingerol]	3,600 SHU	60,000 SHU	
CCCCC/C=C/C(=O)CCc1ccc(O)c(OC)c1 [Formulation 6-shogaol, 6-shogaol]	9,600 SHU	160,000 SHU	
COc1cc(CNC(=O)CCCC/C=C/C(C)C)ccc1O [capsaicin]	40,000 SHU	16,000,000 SHU	
Cn1c(=O)c2[nH]cnc2n(C)c1=O [theophylline]			Peak theophylline plasma levels [1, 2]: 8.78 ± 0.98 mg/L; levels of theophylline (absorption) [1, 2]: 138.32+/−17.27 mg H/liter; mean residence times of theophylline [1, 2]: 20.98+/−5.75 H; Peak theophylline plasma levels ([1]; without capsicum): 6.65 ± 0.76 mg/L; levels of theophylline (absorption) ([1]; without capsicum): 86.06+/−9.78 mg H/liter; mean residence times of theophylline ([1]; without capsicum): 14.94+/−2.97 H; theophylline plasma levels after second administration of capsicum suspension ([1]; second capsicum suspension 11 hours later, every rabbit): new rise
C/C=C/C=C/C=C\CC/C=C/C(=O)NCC(C)(C)O [α-hydroxy-sanshool]	619 SHU	26,000 SHU	

The next lines start with results.

Adjusted SHU (TRPV1)	SHU of pure Agonist (TRPV1)	Compound	other results
368 SHU	80,000 SHU	C/C=C/C=C/C=C\CC/C=C/C(=O)NCC(C)C [α-sanshool]	
35 SHU	13,000 SHU	C/C=C/C=C/C=C/CC/C=C/C(=O)NCC(C)(C)O [β-hydroxy-sanshool]	
49 SHU	70,000 SHU	C/C=C/C=C/C=C/CC/C=C/C(=O)NCC(C)C [β-sanshool]	
209 SHU	110,000 SHU	C/C=C/C=C/C=C\CC/C=C/C=C/C(=O)NCC(C)C [γ-sanshool]	
22 SHU	110,000 SHU	C/C=C/C=C/C=C/CC/C=C/C=C/C(=O)NCC(C)C [δ-sanshool]	
